# ChEMBL document CHEMBL3627701, “(2-Arylethenyl)-1,3,5-triazin-2-amines as a novel histamine H4 receptor ligands” (Eur J Med Chem, 2015)
# pIC50, pKi: −log10 of the molar value. Calls of active or inactive are those of the source. The rule behind the calls is not given here.
# Legend:
# Histamine H4 receptor [1] = target: T1, Histamine H4 receptor (Homo sapiens, UniProt Q9H3N8); experiment: Displacement of [3H]histamine from human H4 receptor expressed in Sf9 cell membranes co-expressing Galphai2 and Gbeta1gamma2 after 60 mins by liquid scintillation counting assay; format: cell-based
# T1 sequence (Q9H3N8 whole entry): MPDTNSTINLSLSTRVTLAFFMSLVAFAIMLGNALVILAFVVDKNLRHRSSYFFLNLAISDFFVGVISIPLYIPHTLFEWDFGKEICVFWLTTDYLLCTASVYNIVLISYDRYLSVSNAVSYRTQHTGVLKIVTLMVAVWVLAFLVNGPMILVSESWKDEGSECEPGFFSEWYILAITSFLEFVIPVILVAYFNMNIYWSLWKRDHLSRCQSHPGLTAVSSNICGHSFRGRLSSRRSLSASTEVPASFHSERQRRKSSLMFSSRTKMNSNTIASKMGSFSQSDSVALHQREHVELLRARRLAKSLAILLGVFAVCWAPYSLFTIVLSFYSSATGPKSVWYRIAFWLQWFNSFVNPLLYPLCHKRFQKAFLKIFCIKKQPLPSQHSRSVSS
# Mus musculus [2] = experiment: Antiinflammatory activity in albino Swiss mouse assessed as inhibition of carrageenan-induced paw edema at 50 mg/kg, po administered prior to carrageenan challenge measured after 1 hr by plethysmometry relative to control; format: functional
# Mus musculus [3] = experiment: Antiinflammatory activity in albino Swiss mouse assessed as inhibition of carrageenan-induced paw edema at 50 mg/kg, po administered prior to carrageenan challenge measured after 2 hrs by plethysmometry relative to control; format: functional
# Mus musculus [4] = experiment: Antiinflammatory activity in albino Swiss mouse assessed as inhibition of carrageenan-induced paw edema at 50 mg/kg, po administered prior to carrageenan challenge measured after 3 hrs by plethysmometry relative to control; format: functional
# Mus musculus [5] = experiment: Antiinflammatory activity in albino Swiss mouse assessed as inhibition of carrageenan-induced paw edema at 25 mg/kg, po administered prior to carrageenan challenge measured after 1 hr by plethysmometry relative to control; format: functional
# Mus musculus [6] = experiment: Antiinflammatory activity in albino Swiss mouse assessed as inhibition of carrageenan-induced paw edema at 25 mg/kg, po administered prior to carrageenan challenge measured after 2 hrs by plethysmometry relative to control; format: functional
# Mus musculus [7] = experiment: Antiinflammatory activity in albino Swiss mouse assessed as inhibition of carrageenan-induced paw edema at 25 mg/kg, po administered prior to carrageenan challenge measured after 3 hrs by plethysmometry relative to control; format: functional
# Mus musculus [8] = experiment: Antiinflammatory activity in albino Swiss mouse assessed as inhibition of carrageenan-induced paw edema at 10 mg/kg, po administered prior to carrageenan challenge measured after 1 hr by plethysmometry relative to control; format: functional
# Mus musculus [9] = experiment: Antiinflammatory activity in albino Swiss mouse assessed as inhibition of carrageenan-induced paw edema at 10 mg/kg, po administered prior to carrageenan challenge measured after 2 hrs by plethysmometry relative to control; format: functional
# Mus musculus [10] = experiment: Antiinflammatory activity in albino Swiss mouse assessed as inhibition of carrageenan-induced paw edema at 10 mg/kg, po administered prior to carrageenan challenge measured after 3 hrs by plethysmometry relative to control; format: functional
# [11] = Antiproliferative activity against human IMR32 cells assessed as inhibition of cell viability after 48 hrs; format: cell-based; conditions: IMR-32, 48 h
# Liver microsome [12] = experiment: Retention time in human liver microsomes at 50 uM after 48 hrs by LC-MS analysis; format: ADME
# Liver microsome [13] = experiment: Drug level in human liver microsomes treated with 50 uM 4-[(E)-2-(3-chlorophenyl)ethenyl]-6-(4-methylpiperazin-1-yl)-1,3,5-triazin-2-amine assessed as compound formation after 48 hrs by LC-MS analysis; format: ADME
# Histamine H4 receptor [14] = target: T2, Histamine H4 receptor (Mus musculus, UniProt Q91ZY2); experiment: Displacement of [3H]histamine from mouse H4 receptor expressed in HEK293 cell membranes co-expressing Galphai2 and Gbeta1gamma2 after 1 hr by liquid scintillation counting assay
# T2 sequence (Q91ZY2 whole entry): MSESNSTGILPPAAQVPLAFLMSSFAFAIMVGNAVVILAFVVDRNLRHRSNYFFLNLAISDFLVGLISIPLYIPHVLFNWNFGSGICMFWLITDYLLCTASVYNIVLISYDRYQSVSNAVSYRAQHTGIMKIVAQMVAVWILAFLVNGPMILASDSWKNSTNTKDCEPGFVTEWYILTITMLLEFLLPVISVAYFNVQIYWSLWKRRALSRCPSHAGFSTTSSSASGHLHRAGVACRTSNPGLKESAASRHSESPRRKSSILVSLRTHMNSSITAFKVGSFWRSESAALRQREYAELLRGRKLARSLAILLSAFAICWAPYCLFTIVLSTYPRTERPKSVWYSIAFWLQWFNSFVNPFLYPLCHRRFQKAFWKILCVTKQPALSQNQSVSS
# Histamine H4 receptor [15] = target: T1, Histamine H4 receptor; experiment: Antagonist activity at human H4R expressed in CHO cells assessed as inhibition of forskolin-induced cAMP accumulation after 30 mins by TR-FRET immunoassay; format: functional, cell-based
# [16] = target: Histamine H3 receptor (Homo sapiens) (UniProt Q9Y5N1); experiment: Displacement of [3H]-N-alpha-methylhistamine from human H3 receptor expressed in HEK293 cells at >=30 uM after 60 mins by liquid scintillation counter assay; format: cell-based
# Histamine H3 receptor (Homo sapiens), sequence (Q9Y5N1 whole entry): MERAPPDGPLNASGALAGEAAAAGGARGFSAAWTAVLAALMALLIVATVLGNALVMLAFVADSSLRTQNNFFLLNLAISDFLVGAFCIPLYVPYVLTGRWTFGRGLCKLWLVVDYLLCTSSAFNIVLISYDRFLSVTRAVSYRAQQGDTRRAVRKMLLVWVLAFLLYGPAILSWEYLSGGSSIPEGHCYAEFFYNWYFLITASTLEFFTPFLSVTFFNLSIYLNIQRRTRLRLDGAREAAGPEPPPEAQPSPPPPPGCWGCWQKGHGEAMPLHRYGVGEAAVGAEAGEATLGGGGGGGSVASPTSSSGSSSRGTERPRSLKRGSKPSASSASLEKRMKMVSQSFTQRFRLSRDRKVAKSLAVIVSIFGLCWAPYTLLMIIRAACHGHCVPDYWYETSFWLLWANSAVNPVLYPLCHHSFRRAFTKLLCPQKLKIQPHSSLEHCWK
# HEK293 = experiment: Antiproliferative activity against HEK293 cells assessed as inhibition of cell viability at 0.01 to 250 uM after 48 hrs; format: cell-based; conditions: human, hek293, 48 h
# [17] = Antiproliferative activity against human IMR32 cells assessed as inhibition of cell viability at 0.01 to 250 uM after 48 hrs; format: cell-based; conditions: imr-32, 48 h
# [18] = Ratio of IC50 for doxorubicin to antiproliferative activity for test compound against human IMR32 cells; format: cell-based, IMR-32; conditions: read-out: Ratio IC50
# Salmonella typhimurium = experiment: Genotoxicity in Salmonella typhimurium TA98 at 1 to 100 uM after 48 hrs by MPF assay; format: toxicity, organism-based; conditions: salmonella enterica subsp. enterica serovar typhimurium
# CYP3A4 = CYP3A4 (Homo sapiens, UniProt P08684); experiment: Inhibition of human recombinant CYP3A4 assessed as conversion of luciferin-PPXE to D-luciferin at 25 uM by luminescence Glo assay relative to control; format: ADME; conditions: recombinant CYP3A4, probe luciferin-PPXE
# CYP3A4, sequence (P08684 whole entry): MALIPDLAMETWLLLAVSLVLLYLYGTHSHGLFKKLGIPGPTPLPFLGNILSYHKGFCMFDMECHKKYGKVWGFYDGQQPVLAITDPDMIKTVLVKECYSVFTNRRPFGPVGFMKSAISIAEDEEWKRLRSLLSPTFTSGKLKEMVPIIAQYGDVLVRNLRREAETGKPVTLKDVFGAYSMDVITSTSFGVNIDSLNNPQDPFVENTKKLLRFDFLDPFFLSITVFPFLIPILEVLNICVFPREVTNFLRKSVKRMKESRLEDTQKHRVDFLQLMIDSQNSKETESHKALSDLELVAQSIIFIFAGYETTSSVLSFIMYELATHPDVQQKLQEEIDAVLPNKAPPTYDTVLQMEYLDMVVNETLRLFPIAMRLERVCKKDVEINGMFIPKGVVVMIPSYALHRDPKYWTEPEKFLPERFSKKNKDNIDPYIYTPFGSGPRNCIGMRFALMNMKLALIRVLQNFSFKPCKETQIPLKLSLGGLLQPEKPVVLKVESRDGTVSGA
# Mus musculus [19] = experiment: Antiinflammatory activity in albino Swiss mouse assessed as inhibition of carrageenan-induced paw edema at 10 mg/kg, po administered prior to carrageenan challenge measured after 1 to 3 hrs by plethysmometry relative to control; format: functional
# Liver microsome [20] = experiment: Drug metabolism in human liver microsomes assessed as metabolite M1 formation at 50 uM after 48 hrs by LC-MS analysis; format: ADME
# Liver microsome [21] = experiment: Drug metabolism in human liver microsomes assessed as metabolite M2 formation at 50 uM after 48 hrs by LC-MS analysis; format: ADME
# Mus musculus [22] = experiment: Antiinflammatory activity in albino Swiss mouse assessed as inhibition of carrageenan-induced paw edema at 50 mg/kg, po administered prior to carrageenan challenge measured after 1 to 3 hrs by plethysmometry relative to control; format: functional
# Mus musculus [23] = experiment: Antiinflammatory activity in albino Swiss mouse assessed as inhibition of carrageenan-induced paw edema at 25 mg/kg, po administered prior to carrageenan challenge measured after 1 to 3 hrs by plethysmometry relative to control; format: functional
structure (smiles),measurement,setting,value
CN1CCN(c2nc(N)nc(/C=C/c3cccc(C(F)(F)F)c3)n2)CC1,pKi,Histamine H4 receptor [1],5.61
CN1CCN(c2nc(N)nc(/C=C/c3ccccc3)n2)CC1,pKi,Histamine H4 receptor [1],5.28
CN1CCN(c2nc(N)nc(/C=C/c3ccccc3Cl)n2)CC1,pKi,Histamine H4 receptor [1],5.31
CN1CCN(c2nc(N)nc(/C=C/c3cccc(C#N)c3)n2)CC1,pKi,Histamine H4 receptor [1],5.58
CN1CCN(c2nc(N)nc(/C=C/c3c[nH]c4ccccc34)n2)CC1,pKi,Histamine H4 receptor [1],5.60
CN1CCN(c2nc(N)nc(/C=C/c3ccc4ccccc4c3)n2)CC1,pKi,Histamine H4 receptor [1],5.42
CN1CCN(c2nc(N)nc(/C=C/c3ccc(Cl)c(Cl)c3)n2)CC1,pKi,Histamine H4 receptor [1],5.75
CC(C(=O)O)c1cccc(C(=O)c2ccccc2)c1 (stereo unspecified) [KETOPROFEN],inhibition in vivo at 50 mg/kg,Mus musculus [2],67%
same,inhibition in vivo at 50 mg/kg,Mus musculus [3],71%
same,inhibition in vivo at 50 mg/kg,Mus musculus [4],77%
same,inhibition in vivo at 25 mg/kg,Mus musculus [5],20%
same,inhibition in vivo at 25 mg/kg,Mus musculus [6],54%
same,inhibition in vivo at 25 mg/kg,Mus musculus [7],67%
same,inhibition in vivo at 10 mg/kg,Mus musculus [8],27%
same,inhibition in vivo at 10 mg/kg,Mus musculus [9],55%
same,inhibition in vivo at 10 mg/kg,Mus musculus [10],63%
Cc1ccccc1/C=C/c1nc(N)nc(N2CCN(C)CC2)n1,pKi,Histamine H4 receptor [1],5.65
CN1CCN(c2nc(N)nc(/C=C/c3ccc(Cl)cc3)n2)CC1,pKi,Histamine H4 receptor [1],5.38
COc1cccc2c1C(=O)c1c(O)c3c(c(O)c1C2=O)C[C@@](O)(C(=O)CO)C[C@@H]3O[C@H]1C[C@H](N)[C@H](O)[C@H](C)O1 [DOXORUBICIN],pIC50,[11],8.29
CN1CCN(c2nc(N)nc(/C=C/c3cccc4ccccc34)n2)CC1,pKi,Histamine H4 receptor [1],4.52
CN1CCN(c2nc(N)nc(/C=C/c3cccc(Br)c3)n2)CC1,pKi,Histamine H4 receptor [1],5.94
CN1CCN(c2nc(N)nc(/C=C/c3cccc([N+](=O)[O-])c3)n2)CC1,pKi,Histamine H4 receptor [1],5.59
Nc1nc(/C=C/c2cccc(Cl)c2)nc(N2CCNCC2)n1,Retention_time,Liver microsome [12],3.55 min
same,Drug metabolism,Liver microsome [13],metabolite_detected
CN1CCN(c2nc(N)nc(/C=C/c3cccc(Cl)c3)n2)CC1,pKi,Histamine H4 receptor [1],6.60
same,pKi,Histamine H4 receptor [14],6.07
same,pIC50,Histamine H4 receptor [15],6.36
same,inhibition,[16],Active
same,Activity,HEK293,Non-toxic
same,Activity,[17],Non-toxic
same,selectivity ratio,[18],> 1000
same,Activity,Salmonella typhimurium,Non-toxic
same,Retention_time,Liver microsome [12],3.63 min
same,inhibition at 25 µM,CYP3A4,58%
same,inhibition in vivo at 50 mg/kg,Mus musculus [2],69%
same,inhibition in vivo at 50 mg/kg,Mus musculus [3],62%
same,inhibition in vivo at 50 mg/kg,Mus musculus [4],67%
same,inhibition in vivo at 10 mg/kg,Mus musculus [19],50%
same,inhibition in vivo at 25 mg/kg,Mus musculus [5],59%
same,inhibition in vivo at 25 mg/kg,Mus musculus [6],58%
same,inhibition in vivo at 25 mg/kg,Mus musculus [7],65%
same,Drug metabolism,Liver microsome [20],metabolite_detected
same,Drug metabolism,Liver microsome [21],metabolite_detected
Cc1ccc(/C=C/c2nc(N)nc(N3CCN(C)CC3)n2)cc1,pKi,Histamine H4 receptor [1],4.43
Cc1cccc(/C=C/c2nc(N)nc(N3CCN(C)CC3)n2)c1,pKi,Histamine H4 receptor [1],6.15
same,pIC50,Histamine H4 receptor [15],6.22
same,inhibition,[16],Active
same,inhibition in vivo at 50 mg/kg,Mus musculus [22],88%
same,inhibition in vivo at 25 mg/kg,Mus musculus [23],53%
CN1CCN(c2nc(N)nc(/C=C/c3cccc(F)c3)n2)CC1,pKi,Histamine H4 receptor [1],5.45
CN1CCN(c2nc(N)nc(/C=C/c3ccc(Cl)cc3Cl)n2)CC1,pKi,Histamine H4 receptor [1],5.04
